Test [1] deals with T1, human dopamine D2 receptor (Homo sapiens, UniProt P14416).
T1 construct: expressed in transfected cells
The experiment in a line: human D2 and D3 receptor binding study (D2). The method, then: (§1) A. In vitro: human D2 and D3 receptor binding study
(§2) CHO (Chinese Hamster Ovary) cells are transfected in a stable manner with the gene encoding the human dopamine D2 or D3 receptor in accordance with methods known from the literature. The native cells are deficient in the enzyme DHFR (DiHydroFolate Reductase). […] The transfections are carried out using Lipofectin (Gibco). The CHO cells co-transfected with the human D2 receptor and the phleomycin resistance gene are selected for their resistance to the presence of that antibiotic in the culture medium. The cells transfected with the human D3 receptor are selected in the presence of methotrexate in a medium containing no hypoxanthine/thymidine. The compositions of the culture media used are: for CHO-D2 : DMEM (Dulbecco's Modified Eagle Medium) supplemented with 10% foetal calf serum and hypoxanthine/thymidine; and for CHO-D3 : DMEM supplemented with 10% dialysed foetal calf serum. The cells are harvested at confluence and the membranes are then prepared.
(§3) After a few minutes in the presence of 0.2% trypsin, the cells are recovered and centrifuged at 2,000 g for 5 minutes. […]
(§4) The ranges of concentration of each compound include at least seven points determined in triplicate, each experiment being repeated at least twice.
(§5) The recovered filters are then counted using a gamma counter. […]

Test [2] addresses T2, human dopamine D3 receptor (Homo sapiens, UniProt P35462).
T2 construct: expressed in transfected cells
The experiment in a line: human D2 and D3 receptor binding study (D3). The method, then:
as §1, §2, §3, §4, §5

Test [3] can be described thus: "Rotations" induced by dopaminergic agonists in rats having a unilateral lesion of the Substantia nigra. The class given is in vivo, male Wistar rats. The conditions noted are these: Rattus norvegicus, sc; read-out: dose from which active in the rotation test.
The subject of test [4] is dopaminergic cells in the ventral tegmentum area of the rat. As to the kind of experiment: Test recording the unitary extracellular electrical activity in the ventral tegmentum area of the rat. In kind it is in vivo. The conditions noted are these: n = 4. As for the experimental part:
1. Test recording the unitary extracellular electrical activity in the ventral tegmentum area of the rat
The administration of a dopaminergic agonist decreases the discharge frequency of neurons in a dose-dependent manner. That effect is reversed by haloperidol, a dopaminergic antagonist.
The rats are anaesthetised with chloral hydrate (400 mg/kg, i.p.) and placed in a stereotactic apparatus (Unimecanique, France) after catheterisation of the femoral vein. The level of anaesthesia is maintained by i.p. administration of chloral hydrate every hour; the rectal temperature is maintained at 37±1° C. by means of a thermostatically controlled heated cover. A tungsten microelectrode (10 M.OMEGA., 1 μm) is inserted using an electronic microinsertion device (Unimecanique, France) into the ventral tegmentum area (AP: -5.5/bregma; L: 0.7; H: 7.0-8.5/dura; Paxinos and Watson atlas, 1986). The potentials of the dopaminergic cells are recognised by their morphology (triphasic potentials+/-/+, of a duration greater than 3 msec), their discharge rhythm, whether regular or in bursts of decreasing amplitude, and their discharge frequency, which is from 2 to 8 Hz. A single cell per animal is used for the recording.
After a period≥5 min. (basal activity) and a first injection of carrier (distilled water to which a few drops of dilute lactic acid have been added; pH adjusted to 5 with 1N NaOH), the products of the invention are administered intravenously in cumulatively increasing doses at intervals of 2-3 min..
Acquisition of the data is effected by the software Spike2 (Cambridge Electronic Design, England). The discharge frequency is measured over one minute at the maximum variation between each injection and is expressed as a percentage variation in relation to the basal activity (average of the 5 minutes preceding the first treatment) defined as 100%. The effect of the products is evaluated statistically by a variance analysis over repeated measurements, followed by a Newman-Keuls test for comparing the effects of different doses with the effect of the carrier.

Another test can be described thus: Forced swimming test. In kind it is in vivo, rat. The text has this:
The forced swimming test (Porsolt R. et al, Eur. J. Pharmacol., 1978, 47, 379-91) is a behavioural test which comprises inducing a state of despair in the rat by placing the naive animal in an enclosure full of water, from which it cannot escape, for a period of fifteen minutes. For the first five to ten minutes the rat struggles vigorously, but finally adopts an immobile posture during the last part of the test. Placed in the same enclosure the next day, the animal remains immobile for the majority of the test (5 minutes' duration). The anti-depressants reduce the duration of immobility of the rat during the test.
The experiment is carried out over two days, with a 24-hour interval, on rats of an average weight of 170 g, housed the day before in individual cages, with free access to food and drink.
On the first day, each rat is placed for fifteen minutes in a glass cylinder (20 cm diameter ×40 cm high) filled to a height of 15 cm with water maintained at 25° C. On the second day, the animal is placed in a cylinder again for a period of five minutes; the total period of immobility (in seconds) of the rat is measured. The product or solvent is administered to the animal thirty minutes before the beginning of the test.

[5] abbreviates: [125I]-iodosulpride, CHO membranes, 30 min at 30° C., pKi = -log Ki.

T1 sequence (P14416 whole entry): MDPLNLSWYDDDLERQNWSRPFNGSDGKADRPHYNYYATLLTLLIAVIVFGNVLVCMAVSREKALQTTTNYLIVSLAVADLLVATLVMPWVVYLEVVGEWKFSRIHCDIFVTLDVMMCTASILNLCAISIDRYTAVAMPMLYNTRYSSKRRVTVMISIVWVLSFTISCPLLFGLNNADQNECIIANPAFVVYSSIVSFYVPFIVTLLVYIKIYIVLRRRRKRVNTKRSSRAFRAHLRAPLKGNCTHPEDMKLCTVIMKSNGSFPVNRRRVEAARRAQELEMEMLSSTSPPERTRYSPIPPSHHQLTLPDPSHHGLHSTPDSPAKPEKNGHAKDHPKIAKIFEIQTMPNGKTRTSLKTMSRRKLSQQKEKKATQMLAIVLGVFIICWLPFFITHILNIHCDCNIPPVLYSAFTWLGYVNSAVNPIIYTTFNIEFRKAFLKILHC
T2 sequence (P35462 whole entry): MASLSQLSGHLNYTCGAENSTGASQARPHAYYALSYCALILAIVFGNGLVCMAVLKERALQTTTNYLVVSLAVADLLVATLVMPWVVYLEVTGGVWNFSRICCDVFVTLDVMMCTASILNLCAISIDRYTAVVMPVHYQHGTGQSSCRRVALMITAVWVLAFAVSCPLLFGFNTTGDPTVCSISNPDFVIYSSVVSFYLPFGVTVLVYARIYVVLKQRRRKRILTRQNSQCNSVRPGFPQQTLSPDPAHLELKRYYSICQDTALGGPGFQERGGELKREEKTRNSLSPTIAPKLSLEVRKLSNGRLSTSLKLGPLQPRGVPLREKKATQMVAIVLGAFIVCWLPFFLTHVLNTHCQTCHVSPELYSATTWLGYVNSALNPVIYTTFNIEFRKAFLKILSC

What is called Ki is a dissociation constant, usually derived from enzyme kinetics or from competition with a known ligand. A higher Ki goes with a looser hold on the target. Regarding `CCCN1CCO[C@@H]2c3cc(C(N)=O)ccc3CC[C@H]21` (single isomer, unassigned) [Example 3, (+)-Trans-3,4,4a,5,6,10b-hexahydro-9-carbamoyl-4-propyl-2H-naphtho[1,2-b]-1,4-oxazine], the Ki in test [1] (setting [5]) is 316 nM; in test [2] (setting [5]) it was 10 nM. Moreover, in test [3], the minimal effective dose came to 0.04 mg/kg. In addition, the “discharge frequency, percentage in relation to basal activity (100%)” value in test [4] (0.5 μg/kg i.v., cumulative doses, mean ± standard error of the mean) amounted to 80.4 ± 5.54%; in test [4] (1 μg/kg i.v., cumulative doses, mean ± standard error of the mean, p ≤ 0.05) it was 56.6 ± 11.4%; in test [4] (2 μg/kg i.v., cumulative doses, mean ± standard error of the mean, p ≤ 0.05) it was 25.0 ± 8.68%; in test [4] (4 μg/kg i.v., cumulative doses, mean ± standard error of the mean, p ≤ 0.05) it was 1.56 ± 1.12%; in test [4] (8 μg/kg i.v., cumulative doses, p ≤ 0.05) it was 0.00%. Moreover, in the test “Forced swimming test” (Rattus norvegicus, sc, read-out: ID50 (period of immobility)), the ED50 came out at 0.41 mg/kg. In addition, in the test “Forced swimming test” (s.c.), the “period of immobility (result in words)” value was “reduces the period of immobility of the animal in a dose-dependent manner”.
The Kd is the equilibrium constant for the complex coming apart. On to “[^125 I]-iodosulpride [[125I]-iodosulpride, reference compound]”, for which the dissociation constant (Kd) in test [1] (radioligand, read-out: Kd (dissociation constant) for the human D2 receptor) was found to be 0.5 nM; in test [2] (radioligand, read-out: Kd (dissociation constant) for the human D3 receptor) it was 1.31 nM.
On to `O=C(CCCN1CCC(O)(c2ccc(Cl)cc2)CC1)c1ccc(F)cc1` [haloperidol, reference compound], for which, in test [4] (haloperidol 16 μg/kg i.v., reversal after cumulative doses of Example 3, mean ± standard error of the mean), the “discharge frequency, percentage in relation to basal activity (100%)” value turned out to be 110.5 ± 14.9%.
